Assay results taken from US20100284912A1, “HOMOGENIZATION OF A RADIOPHARMACEUTICAL USING SONIFICATION AND/OR ROTOR-STATOR TECHNOLOGY TO PRODUCE A HOMOGENOUS SUSPENSION, EMULSION, MIXTURE OR SOLID SUSPENSION OF IMMISCIBLE INGREDIENTS” (BRACCO DIAGNOSTICS INC., priority 2007, published 2010).

Assay: Thermo Gravimetric Analyzer (TGA) % volatiles (water)
Format: physicochemical
Settings: 10° C./min to 110° C., isothermal hold 60 min
Protocol: 10 mg was collected for each sample. A heating ramp of 10° C./min from room temperature to 110° C. with an isothermal hold at 110° C. for 60 min was used in the analysis. Table 4 below depicts the % volatiles (water) which were found versus the theoretical values.

| Structure (SMILES) | % Volatiles Found |
| --- | --- |
| O=P([O-])([O-])O.[K+].[K+] [Potassium Phosphate Dibasic] | 2.7% |
| O=S([O-])([O-])=S.[Na+].[Na+] [Sodium Thiosulfate] | 33% |
